Experimental data reported in US7226936B2, “Pyridinic sulfonamide derivatives method of production and use thereof” (University De Liege, priority 2001, dated 2007).

Columns and labels:
rat paw oedema = assay: Carrageenin-induced rat paw oedema model; assay type: in vivo, Wistar rats; conditions: for percentage of growth of the paw after injection of carrageneen: 1 h before carrageenin, paw weighed 3 h after, mean±standard deviation, n=6, control 96 ± 8.7
Procedure: The activity of the derivatives has also been evaluated by using a rat paw oedema pharmacological model.
In Carrageenin-induced rat paw oedema model, Wistar rats were used. The mean weight of the animals was 250 g. The animals were treated with an intraperitoneal injection of the drug at the appropriate concentration (solution at the concentration of 10 mg/mL in DMSO). Lambda carrageenin (0.1 mL; 1%) was injected one hour later in the plantar region of the right hand paw. Three hours thereafter, the rats were euthanasied by injection of nembutal (100 mg/kg) and the paws were cutted at the ankle. The swelling was calculated as a percentage increase in the weight of the control paw.
Results are expressed as percentage of growth of the paw after injection of carrageneen (mean±standard deviation, n=6).

COX-2 = target: T1, COX-2 (Homo sapiens, UniProt P35354); assay: whole blood assay, COX-2 inhibition; assay type: cell-based
T1 construct: endogenous in cells; host or cells: whole blood (blood cells)
T1 sequence (P35354 18-604): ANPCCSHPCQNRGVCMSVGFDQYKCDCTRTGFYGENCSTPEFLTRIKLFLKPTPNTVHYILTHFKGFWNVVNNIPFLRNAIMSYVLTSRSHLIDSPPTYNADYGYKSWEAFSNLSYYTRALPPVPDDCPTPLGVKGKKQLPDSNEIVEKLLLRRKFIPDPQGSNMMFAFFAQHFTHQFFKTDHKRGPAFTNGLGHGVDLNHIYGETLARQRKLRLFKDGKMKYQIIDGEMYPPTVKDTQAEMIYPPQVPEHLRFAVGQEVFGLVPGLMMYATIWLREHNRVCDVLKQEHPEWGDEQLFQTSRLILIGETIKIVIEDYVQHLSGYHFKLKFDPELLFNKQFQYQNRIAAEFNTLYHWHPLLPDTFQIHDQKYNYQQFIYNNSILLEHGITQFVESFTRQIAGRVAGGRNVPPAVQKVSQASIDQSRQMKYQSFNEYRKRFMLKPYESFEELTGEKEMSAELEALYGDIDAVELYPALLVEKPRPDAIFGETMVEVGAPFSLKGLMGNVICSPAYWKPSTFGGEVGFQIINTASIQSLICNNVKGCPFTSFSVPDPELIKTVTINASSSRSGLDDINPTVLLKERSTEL

O=S(=O)(Nc1ccncc1Oc1ccccc1)C(F)(F)F [Compound 1, N-(3-phenoxy-4-pyridinyl)trifluoromethane-sulfonamide]
percentage of growth of the paw after injection of carrageneen (rat paw oedema; 5 mg/kg intraperitoneal): 101.0 ± 8.1 percentage
percentage of growth of the paw after injection of carrageneen (rat paw oedema; 10 mg/kg intraperitoneal): 74.7 ± 7.2 percentage
percentage of growth of the paw after injection of carrageneen (rat paw oedema; 30 mg/kg intraperitoneal): 54.1 ± 17.5 percentage
anti-inflammatory effect in vivo (in words) (rat paw oedema; conclusion from Table 2): presents an anti-inflammatory effect in vivo
activity as COX-2 inhibitor (in words) (COX-2; conclusion from Table 1): active as COX-2 inhibitor
IC50 (COX-2; estimated IC50, whole blood assay): 400 nM
